Assay [1] deals with T1, HiBit-BRG1 fusion protein (Homo sapiens, UniProt P51532).
T1 construct: expressed in transfected cells
In words: HiBiT-BRG1 cell-based degradation assay (Nano-Glo HiBiT lytic detection, 24 h). The settings on record: for Dmax: read-out: BRG1 HiBit Degradation Maximum (%); for DC50: read-out: BRMG1 HiBit Degradation IC50. Put shortly: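 Luminescence from HiBiT/LgBiT complementation after lytic detection reagent was read following 24 h compound exposure of HeLa cells stably carrying HiBiT-BRG1 plus LgBiT (5000 cells/well). Signal scaled to % degradation using DMSO-treated cells as 0% and cells given 2 μM known BRM/BRG1 degrader as 100%.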
On the technique in general: The HiBiT peptide binds its large partner to form an active luciferase.

The next assay addresses T2, HiBit-BRM fusion protein (Homo sapiens, UniProt P51531).
T2 construct: expressed in transfected cells
In words: HiBiT-BRM cell-based degradation assay (Nano-Glo HiBiT lytic detection, 24 h). The following applies: HeLa cell line expressing HiBiT-BRM; for DC50: read-out: BRM HiBit Degradation IC50. Put shortly:
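Luminescence from LgBiT complementation quantified remaining HiBiT-BRM in stably expressing HeLa cells after 24 h compound exposure (top final dose 30 μM, 3-fold, 10 points, duplicate). Degradation expressed as percent relative to DMSO and a 2 μM reference degrader.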

Setting [2] is: HeLa cell line expressing HiBit-BRG1 and LgBit.

Like-named read-outs stand apart in the source and are kept apart here.

T2 sequence (P51531 whole entry, the tested form may be a part): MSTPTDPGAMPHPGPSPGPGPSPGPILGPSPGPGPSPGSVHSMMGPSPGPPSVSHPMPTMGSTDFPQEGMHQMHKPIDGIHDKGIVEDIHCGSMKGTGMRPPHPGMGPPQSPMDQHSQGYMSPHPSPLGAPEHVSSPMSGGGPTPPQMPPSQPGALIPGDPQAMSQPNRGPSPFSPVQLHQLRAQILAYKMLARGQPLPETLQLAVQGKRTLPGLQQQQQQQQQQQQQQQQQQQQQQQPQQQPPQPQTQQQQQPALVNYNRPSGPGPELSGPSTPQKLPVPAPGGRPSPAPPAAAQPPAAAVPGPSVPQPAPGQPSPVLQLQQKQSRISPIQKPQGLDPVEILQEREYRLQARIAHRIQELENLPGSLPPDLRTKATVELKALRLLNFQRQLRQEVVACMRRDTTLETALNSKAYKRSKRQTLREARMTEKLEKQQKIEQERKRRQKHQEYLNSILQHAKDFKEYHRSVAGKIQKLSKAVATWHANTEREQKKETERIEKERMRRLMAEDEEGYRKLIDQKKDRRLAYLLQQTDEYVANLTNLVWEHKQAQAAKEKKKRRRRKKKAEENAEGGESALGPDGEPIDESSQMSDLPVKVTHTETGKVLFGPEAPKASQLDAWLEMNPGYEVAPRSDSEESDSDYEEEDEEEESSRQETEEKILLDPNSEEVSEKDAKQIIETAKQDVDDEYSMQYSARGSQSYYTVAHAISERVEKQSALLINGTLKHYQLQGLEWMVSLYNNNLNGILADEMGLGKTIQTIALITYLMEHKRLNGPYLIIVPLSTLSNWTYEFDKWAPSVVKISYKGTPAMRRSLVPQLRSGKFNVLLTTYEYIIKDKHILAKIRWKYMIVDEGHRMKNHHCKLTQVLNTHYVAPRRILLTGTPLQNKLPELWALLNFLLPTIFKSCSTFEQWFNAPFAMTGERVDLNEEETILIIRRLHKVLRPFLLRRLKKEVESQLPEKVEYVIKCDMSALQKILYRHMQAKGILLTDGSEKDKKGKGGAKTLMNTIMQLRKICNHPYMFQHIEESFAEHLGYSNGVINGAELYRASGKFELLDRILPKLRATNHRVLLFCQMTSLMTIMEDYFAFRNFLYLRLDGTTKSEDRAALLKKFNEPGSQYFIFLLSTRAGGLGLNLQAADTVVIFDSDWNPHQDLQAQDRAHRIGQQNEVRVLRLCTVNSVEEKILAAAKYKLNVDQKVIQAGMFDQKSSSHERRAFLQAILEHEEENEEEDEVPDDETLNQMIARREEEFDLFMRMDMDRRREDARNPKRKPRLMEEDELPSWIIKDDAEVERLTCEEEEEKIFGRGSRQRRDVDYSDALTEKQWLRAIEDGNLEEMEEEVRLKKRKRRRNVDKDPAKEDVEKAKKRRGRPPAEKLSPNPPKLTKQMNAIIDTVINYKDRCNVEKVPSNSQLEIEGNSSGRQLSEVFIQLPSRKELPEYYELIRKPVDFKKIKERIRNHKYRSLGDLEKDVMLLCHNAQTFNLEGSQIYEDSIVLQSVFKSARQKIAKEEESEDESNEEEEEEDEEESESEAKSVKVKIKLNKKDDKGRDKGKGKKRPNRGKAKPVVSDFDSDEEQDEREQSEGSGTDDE
T1 sequence (P51532 whole entry, the tested form may be a part): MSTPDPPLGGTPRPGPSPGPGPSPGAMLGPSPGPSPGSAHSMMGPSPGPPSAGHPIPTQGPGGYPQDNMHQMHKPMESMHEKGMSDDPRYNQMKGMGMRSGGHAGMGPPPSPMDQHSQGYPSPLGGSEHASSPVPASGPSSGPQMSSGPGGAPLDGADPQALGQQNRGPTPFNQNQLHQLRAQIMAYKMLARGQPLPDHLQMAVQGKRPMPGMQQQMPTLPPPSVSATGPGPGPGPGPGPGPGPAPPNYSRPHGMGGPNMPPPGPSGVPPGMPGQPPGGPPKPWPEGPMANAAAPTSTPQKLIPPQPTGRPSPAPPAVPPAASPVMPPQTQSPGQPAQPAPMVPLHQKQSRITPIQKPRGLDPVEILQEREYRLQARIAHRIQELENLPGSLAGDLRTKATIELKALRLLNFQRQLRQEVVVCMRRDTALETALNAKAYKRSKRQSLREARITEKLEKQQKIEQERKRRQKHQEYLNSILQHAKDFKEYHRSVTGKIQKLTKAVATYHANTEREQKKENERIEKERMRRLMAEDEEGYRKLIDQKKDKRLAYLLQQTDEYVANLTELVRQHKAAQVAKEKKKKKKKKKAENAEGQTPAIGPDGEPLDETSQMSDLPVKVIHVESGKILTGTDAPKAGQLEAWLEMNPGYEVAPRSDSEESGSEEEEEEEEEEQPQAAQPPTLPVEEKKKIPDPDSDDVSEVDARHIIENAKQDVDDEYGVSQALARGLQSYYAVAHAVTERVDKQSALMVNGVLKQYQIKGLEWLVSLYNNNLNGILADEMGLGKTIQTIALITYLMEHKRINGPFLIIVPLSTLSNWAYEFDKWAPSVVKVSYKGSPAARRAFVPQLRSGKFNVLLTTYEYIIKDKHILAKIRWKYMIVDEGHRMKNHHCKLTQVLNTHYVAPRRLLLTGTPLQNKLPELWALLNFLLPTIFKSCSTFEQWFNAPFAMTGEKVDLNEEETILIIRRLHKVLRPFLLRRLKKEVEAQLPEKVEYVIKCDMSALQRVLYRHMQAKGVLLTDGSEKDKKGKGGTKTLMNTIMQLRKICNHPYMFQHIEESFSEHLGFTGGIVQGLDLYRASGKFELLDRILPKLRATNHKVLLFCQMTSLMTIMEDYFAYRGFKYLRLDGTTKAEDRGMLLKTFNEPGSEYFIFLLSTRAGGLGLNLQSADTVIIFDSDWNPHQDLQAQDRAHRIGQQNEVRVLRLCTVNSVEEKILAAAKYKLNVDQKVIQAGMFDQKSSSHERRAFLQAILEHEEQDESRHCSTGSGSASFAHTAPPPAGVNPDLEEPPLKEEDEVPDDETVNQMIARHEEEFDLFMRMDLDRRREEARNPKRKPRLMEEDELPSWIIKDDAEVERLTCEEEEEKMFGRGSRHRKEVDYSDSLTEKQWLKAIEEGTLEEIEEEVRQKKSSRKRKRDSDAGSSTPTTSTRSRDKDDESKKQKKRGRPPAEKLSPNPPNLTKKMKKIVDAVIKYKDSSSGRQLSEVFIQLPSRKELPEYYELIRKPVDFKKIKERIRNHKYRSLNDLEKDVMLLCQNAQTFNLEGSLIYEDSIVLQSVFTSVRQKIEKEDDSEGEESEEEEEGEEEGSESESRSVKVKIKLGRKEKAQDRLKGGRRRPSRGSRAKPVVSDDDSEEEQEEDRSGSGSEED

Consider `Cc1ncsc1-c1ccc([C@H](C)NC(=O)[C@@H]2C[C@@H](O)CN2C(=O)[C@@H](c2cc(N3CCC(N4CC(c5cc6nnc(-c7ccccc7O)cc6n5C)C4)CC3)no2)C(C)C)cc1` [Compound 12, (2S,4R)-4-hydroxy-1-((R)-2-(3-(4-(3-(3-(2-hydroxyphenyl)-5-methyl-5H-pyrrolo[3,2-c]pyridazin-6-yl)azetidin-1-yl)piperidin-1-yl)isoxazol-5-yl)-3-methylbutanoyl)-N-((S)-1-(4-(4-methylthiazol-5-yl)phenyl)ethyl)pyrrolidine-2-carboxamide], for which, in assay [1] (setting [2]), the Dmax is above 75% and the DC50 is above 10 nM. Moreover, on HiBit-BRM fusion protein, the “BRM HiBit Degradation Maximum (%)” value is given as “A (“A” indicates maximum degradation ≥75%)” and the DC50 is below 10 nM.

Consider `Cc1ncsc1-c1ccc([C@H](C)NC(=O)[C@@H]2C[C@@H](O)CN2C(=O)[C@H](c2cc(-c3cnc(N4CCC(c5cc6nnc(-c7ccccc7O)cc6n5C)CC4)nc3)no2)C(C)C)cc1` [Compound 22, (2S,4R)-4-hydroxy-1-((S)-2-(3-(2-(4-(3-(2-hydroxyphenyl)-5-methyl-5H-pyrrolo[3,2-c]pyridazin-6-yl)piperidin-1-yl)pyrimidin-5-yl)isoxazol-5-yl)-3-methylbutanoyl)-N—((S)-1-(4-(4-methylthiazol-5-yl)phenyl)ethyl)pyrrolidine-2-carboxamide], for which, in assay [1] (HeLa), the Dmax was below 50%. On HiBit-BRM fusion protein, the “BRM HiBit Degradation Maximum (%)” value is on record as “B (“B” indicates maximum degradation ≥50%)” and the DC50 was above 100 nM.

For the molecule `Cc1ncsc1-c1ccc([C@H](C)NC(=O)[C@@H]2C[C@@H](O)CN2C(=O)[C@@H](c2cc(N3CCC4(CC3)CC(c3cc5nnc(-c6ccccc6O)cc5n3CC3CC3)C4)no2)C(C)C)cc1` [Compound 86, (2S,4R)-1-((R)-2-(3-(2-(5-(cyclopropylmethyl)-3-(2-hydroxyphenyl)-5H-pyrrolo[3,2-c]pyridazin-6-yl)-7-azaspiro[3.5]nonan-7-yl)isoxazol-5-yl)-3-methylbutanoyl)-4-hydroxy-N-((S)-1-(4-(4-methylthiazol-5-yl)phenyl)ethyl)pyrrolidine-2-carboxamide], the Dmax in assay [1] (setting [2]) is below 50%. Moreover, at HiBit-BRM fusion protein, the “BRM HiBit Degradation Maximum (%)” value was “A (“A” indicates maximum degradation ≥75%)” and the DC50 was below 10 nM.

In the case of `Cc1ncsc1-c1ccc([C@H](C)NC(=O)[C@@H]2C[C@@H](O)CN2C(=O)[C@@H](c2cc(-c3cnc(N4CCN(c5cc6nnc(-c7ccccc7O)cc6n5C)CC4)nc3)no2)C(C)C)cc1` [Compound 28, (2S,4R)-4-hydroxy-1-[(2R)-2-[3-(2-{4-[3-(2-hydroxyphenyl)-5-methylpyrrolo[3,2-c]pyridazin-6-yl]piperazin-1-yl}pyrimidin-5-yl)-1,2-oxazol-5-yl]-3-methylbutanoyl]-N-[(1S)-1-[4-(4-methyl-1,3-thiazol-5-yl)phenyl]ethyl]pyrrolidine-2-carboxamide], in assay [1] (setting [2]), the Dmax was above 75% and the DC50 is below 10 nM. For the same molecule, on HiBit-BRM fusion protein, the “BRM HiBit Degradation Maximum (%)” value is “A (“A” indicates maximum degradation ≥75%)” and the DC50 was below 10 nM.

On to `Cc1ncsc1-c1ccc([C@H](C)NC(=O)[C@@H]2C[C@@H](O)CN2C(=O)[C@@H](c2cc(-c3cnc(N4CC[C@H](c5cc6nnc(-c7ccccc7O)cc6n5C5CC5)C4)nc3)no2)C(C)C)cc1` [Compound 34, (2S,4R)-1-((R)-2-(3-(2-((S)-3-(5-cyclopropyl-3-(2-hydroxyphenyl)-5H-pyrrolo[3,2-c]pyridazin-6-yl)pyrrolidin-1-yl)pyrimidin-5-yl)isoxazol-5-yl)-3-methylbutanoyl)-4-hydroxy-N—((S)-1-(4-(4-methylthiazol-5-yl)phenyl)ethyl)pyrrolidine-2-carboxamide], for which the Dmax in assay [1] (setting [2]) is below 50%. Also, on HiBit-BRM fusion protein, the “BRM HiBit Degradation Maximum (%)” value was “A (“A” indicates maximum degradation ≥75%)” and the DC50 was below 10 nM.

In the case of `Cc1ncsc1-c1ccc([C@H](C)NC(=O)[C@@H]2C[C@@H](O)CN2C(=O)[C@@H](c2cc(-c3cnc(N4CC5(CC(c6cc7nnc(-c8ccccc8O)cc7n6C6CCC6)C5)C4)nc3)no2)C(C)C)cc1` [Compound 62, (2S,4R)-1-((R)-2-(3-(2-(6-(5-cyclobutyl-3-(2-hydroxyphenyl)-5H-pyrrolo[3,2-c]pyridazin-6-yl)-2-azaspiro[3.3]heptan-2-yl)pyrimidin-5-yl)isoxazol-5-yl)-3-methylbutanoyl)-4-hydroxy-N-((S)-1-(4-(4-methylthiazol-5-yl)phenyl)ethyl)pyrrolidine-2-carboxamide], in assay [1] (setting [2]), the Dmax is above 50% and the DC50 is above 10 nM. At HiBit-BRM fusion protein, the “BRM HiBit Degradation Maximum (%)” value is recorded as “A (“A” indicates maximum degradation ≥75%)” and the DC50 was below 10 nM.

As to `Cc1ncsc1-c1ccc([C@H](C)NC(=O)[C@@H]2C[C@@H](O)CN2C(=O)[C@@H](c2cc(-c3cnc(N4CCC(c5cc6nnc(-c7ccccc7O)cc6n5C5CCC5)CC4)nc3)no2)C(C)C)cc1` [Compound 47], the “BRG1 HiBit Degradation Maximum (%)” value in assay [1] (setting [2]) is reported as “C (“C” indicates maximum degradation <50%)”. Further, on HiBit-BRM fusion protein, the “BRM HiBit Degradation Maximum (%)” value is “A (“A” indicates maximum degradation ≥75%)” and the DC50 was below 10 nM.

Turning to `CC(C)C(C(=O)N1C[C@H](O)C[C@H]1C(=O)NC1CC1)c1cc(N2CC3(CC(c4cc5nnc(-c6ccccc6O)cc5n4C4CCC4)C3)C2)no1` (stereo partly drawn) [Compound 56, (2S,4R)-1-(2-(3-(6-(5-cyclobutyl-3-(2-hydroxyphenyl)-5H-pyrrolo[3,2-c]pyridazin-6-yl)-2-azaspiro[3.3]heptan-2-yl)isoxazol-5-yl)-3-methylbutanoyl)-N-cyclopropyl-4-hydroxypyrrolidine-2-carboxamide], the Dmax in assay [1] (setting [2]) was below 50%. On HiBit-BRM fusion protein, the “BRM HiBit Degradation Maximum (%)” value was “A (“A” indicates maximum degradation ≥75%)” and the DC50 was above 10 nM.

On to `Cc1ncsc1-c1ccc([C@H](C)NC(=O)[C@@H]2C[C@@H](O)CN2C(=O)[C@H](c2cc(-c3ccnc(N4CC[C@H](c5cc6nnc(-c7ccccc7O)cc6n5C5CC5)C4)n3)no2)C(C)C)cc1` [Compound 40], for which the Dmax in assay [1] (setting [2]) was below 50%. On HiBit-BRM fusion protein, the “BRM HiBit Degradation Maximum (%)” value is reported as “C (“C” indicates maximum degradation <50%)”.

As to `CCn1c(C2CCN(c3ncc(-c4cc([C@H](C(=O)N5C[C@H](O)C[C@H]5C(=O)N[C@@H](C)c5ccc(-c6scnc6C)cc5)C(C)C)on4)cn3)CC2)cc2nnc(-c3ccccc3O)cc21` [Compound 23, (2S,4R)-1-[(2R)-2-[3-(2-{4-[5-ethyl-3-(2-hydroxyphenyl)pyrrolo[3,2-c]pyridazin-6-yl]piperidin-1-yl}pyrimidin-5-yl)-1,2-oxazol-5-yl]-3-methylbutanoyl]-4-hydroxy-N-[(1S)-1-[4-(4-methyl-1,3-thiazol-5-yl)phenyl]ethyl]pyrrolidine-2-carboxamide], in assay [1] (setting [2]), the Dmax is above 50% and the DC50 was above 10 nM. On HiBit-BRM fusion protein, the “BRM HiBit Degradation Maximum (%)” value is recorded as “A (“A” indicates maximum degradation ≥75%)” and the DC50 is below 10 nM.

Take `CC[C@H](C)NC(=O)[C@@H]1C[C@@H](O)CN1C(=O)C(c1cc(N2CC3(CC(c4cc5nnc(-c6ccccc6O)cc5n4C4CCC4)C3)C2)no1)C(C)C` (stereo partly drawn) [Compound 51, (2S,4R)-N-((S)-sec-butyl)-1-(2-(3-(6-(5-cyclobutyl-3-(2-hydroxyphenyl)-5H-pyrrolo[3,2-c]pyridazin-6-yl)-2-azaspiro[3.3]heptan-2-yl)isoxazol-5-yl)-3-methylbutanoyl)-4-hydroxypyrrolidine-2-carboxamide]: the Dmax in assay [1] (setting [2]) is below 50%. In addition, at HiBit-BRM fusion protein, the “BRM HiBit Degradation Maximum (%)” value is listed as “A (“A” indicates maximum degradation ≥75%)” and the DC50 was above 10 nM.

Values taken from patent US20250302832A1, “PYRAZINE DERIVATIVES AND USES THEREOF” (FOGHORN THERAPEUTICS INC., priority 2022, published 2025).
